The nature of one data set: Rat PK, oral gavage. The data set is classed as in vivo, Sprague-Dawley rats. To be noted: male, Sprague-Dawley, rat, po, 10 mg/kg, oral gavage 10 mg/kg; for blood plasma ratio: whole blood and plasma, AUClast in blood divided by AUClast in plasma, rats; for half-life: whole blood, fasted male Sprague-Dawley rats, 0.5% methylcellulose suspension, blood. The protocol: Rat PK: A group of fasted male Sprague-Dawley rats were dosed via oral gavage at 10 mg/kg with test articles formulated in 0.5% methylcellulose suspension. Blood samples were collected through jugular vein at pre-selected time points. Blood samples were prepared by protein precipitation with ACN, vortexed and then centrifuged before supernatants were transferred for bioanalysis. Test article concentrations were measured by HPLC-MS-MS. Pharmacokinetic parameters were calculated using non-compartment analysis. The blood/plasma ratio was calculated by dividing the AUClast (i.e., the area under the curve calculated from t=0 to the last detectable time-point) in blood by the AUClast in plasma. The T1/2 was calculated via a linear regression of the terminal phase of the blood-time concentration profile.

In the next data set the target is T1, PXR nuclear receptor (Homo sapiens, UniProt O75469).
T1 construct: expressed in transfected cells; host or cells: DPX2 (stably transfected human hepatoma cells)
T1 sequence (O75469 1-434): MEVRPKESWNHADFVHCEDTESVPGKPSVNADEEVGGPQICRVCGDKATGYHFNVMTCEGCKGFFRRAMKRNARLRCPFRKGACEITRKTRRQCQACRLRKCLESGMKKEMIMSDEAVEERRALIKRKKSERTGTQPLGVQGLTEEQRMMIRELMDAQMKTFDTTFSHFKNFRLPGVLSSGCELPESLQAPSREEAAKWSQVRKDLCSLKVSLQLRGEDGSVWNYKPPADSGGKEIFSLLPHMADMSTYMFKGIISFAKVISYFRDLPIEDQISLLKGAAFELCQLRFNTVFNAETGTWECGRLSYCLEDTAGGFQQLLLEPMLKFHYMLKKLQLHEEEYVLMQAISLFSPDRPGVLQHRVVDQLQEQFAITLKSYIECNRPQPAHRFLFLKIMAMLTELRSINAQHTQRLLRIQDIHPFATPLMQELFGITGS
The data set is described as follows: CYP (PXR) assay: PXR nuclear receptor activation in DPX2 reporter cells. The data set is classed as cell-based. To be noted: fold PXR activation, 24 h. How it is done:
CYP (PXR) Assay: PXR nuclear receptor activation utilizing stably-transfected human hepatoma cell lines (DPX2) were seeded in a 96-well plate. Twenty-four hours after seeding, the cells were treated with selected concentrations of compounds in duplicate wells, and cells then returned to the incubator for an additional 24 h. At the end of this incubation period, the number of viable cells/well were determined using Promega's Cell Titer Fluor cytotoxicity assay. Subsequently, Promega's ONE-Glo were added to the same wells and reporter gene activity were assessed. The average luminescent units for each compound dose of two replicates were divided by the average for the DMSO solvent control to determine the fold-induction. In accordance with industry standard, a threshold of ≥2.5-fold was used to flag compounds that have in vivo CYP induction risk.

Another data set addresses T2, Hb (Homo sapiens, UniProt P68871+P69905).
T2 construct: from tissue; host or cells: whole blood
Description: Whole blood assay: oxygen equilibrium curves (Hemox Analyzer), change in p50. To be noted: whole blood incubated 1 h at 37° C., equimolar ratio of hemoglobin to compound. The data set is classed as cell-based. The protocol:
Whole blood assay: Oxygen equilibrium curves (OECs) were collected using a TCS Hemox Analyzer (TCS Scientific Company, New Hope, Pa., USA) to measure changes in the binding affinity of O2 to Hb. Whole blood was incubated for 1 h at 37° C. with the indicated compounds in an equimolar ratio of hemoglobin to compound and diluted into TES (2-[[1,3-dihydroxy-2-(hydroxymethyl)propan-2-yl]amino]ethanesulfonic acid)/saline buffer prior to measurements. For example, for whole blood at 20% hematocrit [Hct], which corresponds to 1 mM Hb, a compound concentration of 1 mM was used (for example, for compounds 1-5), and the incubated sample diluted 50- to 100-fold. The concentration for compounds 6-44 (Diastereomers 1 and 2) varied but remained in equimolar ratio to hemoglobin. The diluted samples were then oxygenated with compressed air within the Hemox Analyzer and the OECs were collected during deoxygenation as previously described (Guarnone et al., Haematologica, 1995, 80, 426-430). p 50 (partial pressure of O2 at which Hb is 50% saturated with O2) values were obtained using a non-linear regression analysis. Percentage change in p50 [Δp50(%)] was calculated as follows: Δp50(%)=[(p50 of control)−p50 with compound)/p50 control]×100.

What is called half-life is how long it takes for the measured level to halve. Low values mean fast loss, high ones slow loss.

T2 sequence (P69905 2-142 limits assumed): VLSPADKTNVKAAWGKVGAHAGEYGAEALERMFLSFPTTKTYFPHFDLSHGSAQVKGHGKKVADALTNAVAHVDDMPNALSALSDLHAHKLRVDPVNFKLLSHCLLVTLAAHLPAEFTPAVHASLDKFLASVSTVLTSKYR
T2 sequence (P68871 2-147 limits assumed): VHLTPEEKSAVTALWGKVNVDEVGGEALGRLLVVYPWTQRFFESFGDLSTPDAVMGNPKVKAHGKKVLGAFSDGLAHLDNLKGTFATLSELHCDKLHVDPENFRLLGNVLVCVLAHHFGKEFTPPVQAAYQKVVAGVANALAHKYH

As to `O=Cc1c(O)cccc1OCC1CSCCN1C(=O)c1cccnc1CO` (single isomer, unassigned) [Compound 13 (Enantiomer 1), 2-hydroxy-6-((4-(2-(hydroxymethyl)nicotinoyl)-thiomorpholin-3-yl)-methoxy)benzaldehyde], in the data set “Rat PK, oral gavage”, the blood plasma ratio came to 230 and the half-life is 88 h. Besides, the “CYP (PXR) Flag” value at PXR nuclear receptor (at 30 μM) is given as “N (PXR activation < 2.5-fold)”. Also, the “Delta-p50 (%)” value at Hb is recorded as 80.6%.

Take `O=Cc1c(O)cccc1OC[C@@H]1CCCCN1C(=O)c1cccnc1CCO` [Compound 1, (S)-2-hydroxy-6-((1-(2-(2-hydroxyethyl)nicotinoyl)piperidin-2-yl)methoxy)benzaldehyde]: in “Rat PK, oral gavage”, the blood plasma ratio was found to be 162 and the half-life is 58 h. Also, the “CYP (PXR) Flag” value at PXR nuclear receptor (at 25 μM) is listed as “N^1 (PXR activation < 2.5-fold)”. At Hb, the “Delta-p50 (%)” value was determined as 77.3%.

Take `O=Cc1c(O)cccc1OC[C@@H]1COCCN1C(=O)c1cccnc1CCO` [Compound 8, (S)-2-hydroxy-6-((4-(2-(2-hydroxyethyl)nicotinoyl)morpholin-3-yl)methoxy)benzaldehyde]: in “Rat PK, oral gavage”, the blood plasma ratio turned out to be 105 and the half-life is 69 h. Moreover, the “CYP (PXR) Flag” value on PXR nuclear receptor (at 30 μM) is “N (PXR activation < 2.5-fold)”. In addition, at Hb, the “Delta-p50 (%)” value came out at 79.8%.

With `O=Cc1c(O)cccc1OC[C@@H]1COCCN1C(=O)c1cccnc1CO` [Compound 12, (S)-2-hydroxy-6-((4-(2-(hydroxymethyl)nicotinoyl)morpholin-3-yl)methoxy)benzaldehyde], in “Rat PK, oral gavage”, the blood plasma ratio turned out to be 131 and the half-life was 58 h. In addition, the “CYP (PXR) Flag” value on PXR nuclear receptor (at 30 μM) was “N (PXR activation < 2.5-fold)”. In addition, on Hb, the “Delta-p50 (%)” value stood at 76.7%.

Turning to `O=Cc1c(O)cccc1OC[C@@H]1COCCN1C(=O)c1ccccc1` [Reference Compound B, reference compound], in “Rat PK, oral gavage”, the blood plasma ratio is 98 and the half-life is 29.8 h. Moreover, the “CYP (PXR) Flag” value on PXR nuclear receptor (at 30 μM) was “Y (PXR activation ≥ 2.5-fold)”.

The values above are taken from patent publication US11548880B2, “Modulators of hemoglobin” (Global Blood Therapeutics, Inc., priority 2018, dated 2023).
